Results as given in patent US20090118332A1, “Therapeutic Agents - 551” (AstraZeneca AB, priority 2006, published 2009).

Target: T1, human Fatty Acid Synthase (Homo sapiens, UniProt P49327)
T1 construct: made in house
Experiment: Human FAS enzyme assay (decrease in NADPH fluorescence)
Assay type: biochemical
Details: % inhibition at a concentration of 100 μmolar
How it was run: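 In-house human FAS was preincubated with compound and NADPH for 15 min at room temperature in 0.1 M Tris pH 7.5 with EDTA, glutathione and BSA. Malonyl CoA and acetyl CoA (500 μM and 150 μM in the added mix) were then added for 60 min. IC50 came from time-zero-subtracted NADPH fluorescence (340/460 nm).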

T1 sequence (P49327 whole entry): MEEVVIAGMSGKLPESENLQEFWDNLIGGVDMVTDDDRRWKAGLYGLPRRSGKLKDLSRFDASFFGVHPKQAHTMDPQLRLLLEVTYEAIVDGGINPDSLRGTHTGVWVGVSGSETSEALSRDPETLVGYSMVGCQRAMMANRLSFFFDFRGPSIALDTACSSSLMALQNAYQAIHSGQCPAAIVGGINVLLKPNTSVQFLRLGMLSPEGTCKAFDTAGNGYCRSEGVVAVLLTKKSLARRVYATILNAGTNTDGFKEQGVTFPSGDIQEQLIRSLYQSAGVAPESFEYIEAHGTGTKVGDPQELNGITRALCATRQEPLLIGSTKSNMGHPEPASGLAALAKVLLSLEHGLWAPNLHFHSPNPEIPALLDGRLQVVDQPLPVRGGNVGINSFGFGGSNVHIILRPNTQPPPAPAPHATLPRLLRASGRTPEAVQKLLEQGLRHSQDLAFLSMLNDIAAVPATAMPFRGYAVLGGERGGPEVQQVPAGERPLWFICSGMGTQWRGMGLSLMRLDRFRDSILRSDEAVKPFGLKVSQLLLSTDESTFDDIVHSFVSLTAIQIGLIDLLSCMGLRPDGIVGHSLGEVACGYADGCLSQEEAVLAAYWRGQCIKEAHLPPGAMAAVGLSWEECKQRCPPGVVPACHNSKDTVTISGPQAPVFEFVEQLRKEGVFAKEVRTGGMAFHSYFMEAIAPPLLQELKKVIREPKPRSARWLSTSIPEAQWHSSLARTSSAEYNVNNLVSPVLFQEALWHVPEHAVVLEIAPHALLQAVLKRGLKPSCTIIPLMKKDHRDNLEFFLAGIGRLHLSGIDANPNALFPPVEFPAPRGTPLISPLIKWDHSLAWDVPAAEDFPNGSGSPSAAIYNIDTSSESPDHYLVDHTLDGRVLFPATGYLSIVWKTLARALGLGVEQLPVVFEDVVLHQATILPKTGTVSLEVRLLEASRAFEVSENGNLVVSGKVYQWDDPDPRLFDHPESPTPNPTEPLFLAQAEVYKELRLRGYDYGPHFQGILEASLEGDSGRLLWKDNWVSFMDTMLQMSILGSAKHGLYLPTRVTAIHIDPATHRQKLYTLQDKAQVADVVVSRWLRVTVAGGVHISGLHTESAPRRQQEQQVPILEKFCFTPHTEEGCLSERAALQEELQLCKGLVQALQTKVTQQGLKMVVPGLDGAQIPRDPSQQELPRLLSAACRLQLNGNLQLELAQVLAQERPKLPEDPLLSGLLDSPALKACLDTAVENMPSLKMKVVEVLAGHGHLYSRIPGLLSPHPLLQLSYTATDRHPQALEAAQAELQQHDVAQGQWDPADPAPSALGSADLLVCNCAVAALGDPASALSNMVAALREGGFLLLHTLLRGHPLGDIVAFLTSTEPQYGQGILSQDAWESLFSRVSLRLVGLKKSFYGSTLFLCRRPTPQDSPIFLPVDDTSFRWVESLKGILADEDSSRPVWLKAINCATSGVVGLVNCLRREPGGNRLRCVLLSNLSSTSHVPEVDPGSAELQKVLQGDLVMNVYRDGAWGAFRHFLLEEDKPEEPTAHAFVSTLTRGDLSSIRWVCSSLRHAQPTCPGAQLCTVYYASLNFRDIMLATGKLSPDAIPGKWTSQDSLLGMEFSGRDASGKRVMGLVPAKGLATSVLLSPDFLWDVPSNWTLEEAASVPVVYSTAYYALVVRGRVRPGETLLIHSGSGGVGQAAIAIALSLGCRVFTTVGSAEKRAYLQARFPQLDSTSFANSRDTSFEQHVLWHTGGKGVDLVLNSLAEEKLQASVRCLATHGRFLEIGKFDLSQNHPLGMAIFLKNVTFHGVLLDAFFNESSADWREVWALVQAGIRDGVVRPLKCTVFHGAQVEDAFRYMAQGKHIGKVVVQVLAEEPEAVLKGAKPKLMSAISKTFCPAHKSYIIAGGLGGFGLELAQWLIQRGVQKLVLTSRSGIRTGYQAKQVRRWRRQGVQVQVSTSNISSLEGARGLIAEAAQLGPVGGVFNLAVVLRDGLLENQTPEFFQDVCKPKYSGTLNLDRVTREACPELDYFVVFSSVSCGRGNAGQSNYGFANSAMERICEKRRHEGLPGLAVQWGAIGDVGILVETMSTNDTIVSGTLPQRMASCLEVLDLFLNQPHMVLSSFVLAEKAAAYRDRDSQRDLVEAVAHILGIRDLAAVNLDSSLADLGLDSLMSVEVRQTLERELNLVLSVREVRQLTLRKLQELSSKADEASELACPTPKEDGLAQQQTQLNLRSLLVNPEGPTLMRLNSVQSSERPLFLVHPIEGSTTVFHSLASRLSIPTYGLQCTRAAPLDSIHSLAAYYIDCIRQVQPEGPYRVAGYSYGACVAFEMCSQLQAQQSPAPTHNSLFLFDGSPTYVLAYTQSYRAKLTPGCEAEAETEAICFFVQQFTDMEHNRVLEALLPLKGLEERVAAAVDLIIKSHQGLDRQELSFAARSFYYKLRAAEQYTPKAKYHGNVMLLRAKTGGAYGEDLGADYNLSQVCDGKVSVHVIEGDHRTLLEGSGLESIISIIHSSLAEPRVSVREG

Row | SMILES | inhibition at 100 µM [%]
1 | Cc1ccc(C(=O)N2CCC(c3ccc(C#N)cc3)CC2)cc1NC(=O)NCCN(C)S(C)(=O)=O [Example 121, 1-[5-[4-(4-cyanophenyl)piperidine-1-carbonyl]-2-methyl-phenyl]-3-[2-(methyl-methylsulfonyl-amino)ethyl]urea] | 86
2 | CC(=O)N1CCC(NC(=O)Nc2cc(C(=O)N3CCC(c4ccc(C#N)cc4)CC3)ccc2C)CC1 [Example 282, 3-(1-acetyl-4-piperidyl)-1-[5-[4-(4-cyanophenyl)piperidine-1-carbonyl]-2-methyl-phenyl]urea] | 95
3 | Cc1ccc(C(=O)N2CCC(c3ccc(C#N)cc3)CC2)cc1NC(=O)N1CCC1 [Example 346, N-[5-[4-(4-cyanophenyl)piperidine-1-carbonyl]-2-methyl-phenyl]azetidine-1-carboxamide] | 75.5
4 | Cc1ccc(C(=O)N2CCC(c3ccc(C#N)cc3)CC2)cc1NC(=O)NCC1CCS(=O)(=O)C1 (centres unmarked) [Example 80, 1-[5-[4-(4-cyanophenyl)piperidine-1-carbonyl]-2-methyl-phenyl]-3-[(1,1-dioxothiolan-3-yl)methyl]urea] | 96.1
5 | Cc1ccc(C(=O)N2CCC(c3ccc(C#N)cc3)CC2)cc1NC(=O)NCc1cnn(C)c1 [Example 356, 1-[5-[4-(4-cyanophenyl)piperidine-1-carbonyl]-2-methyl-phenyl]-3-[(1-methylpyrazol-4-yl)methyl]urea] | 92.4
6 | Cc1ccc(C(=O)N2CCC(c3ccc(C#N)cc3)CC2)cc1NC(=O)NCC1CCCO1 (centres unmarked) [Example 151, 1-[5-[4-(4-cyanophenyl)piperidine-1-carbonyl]-2-methyl-phenyl]-3-(oxolan-2-ylmethyl)urea] | 92.1
7 | Cc1ccc(C(=O)N2CCC(c3ccc(C#N)cc3)CC2)cc1NC(=O)NCc1ccncc1 [Example 36, 1-[5-[4-(4-cyanophenyl)piperidine-1-carbonyl]-2-methyl-phenyl]-3-(pyridin-4-ylmethyl)urea] | 93.8
8 | Cc1ccc(C(=O)N2CCC(c3ccc(F)cc3)CC2)cc1NC(=O)NC1CN(C(=O)OC(C)(C)C)C1 [Example 339, tert-butyl 3-[[5-[4-(4-fluorophenyl)piperidine-1-carbonyl]-2-methyl-phenyl]carbamoylamino]azetidine-1-carboxylate] | 81.3
9 | CC(C)NC(=O)Nc1cc(C(=O)N2CCC(c3ccc(C#N)cc3)CC2)ccc1F [Example 11, 3-[5-[4-(4-cyanophenyl)piperidine-1-carbonyl]-2-fluoro-phenyl]-1-propan-2-yl-urea] | 68.4
10 | Cc1ccc(C(=O)N2CCC(c3ccc(C#N)cc3)CC2)cc1NC(=O)N1CCOCC1 [Example 2, N-[5-[4-(4-cyanophenyl)piperidine-1-carbonyl]-2-methyl-phenyl]morpholine-4-carboxamide] | 79.7
11 | CC(C)NC(=O)Nc1cc(C(=O)N2CCC(c3ccc(C#N)cc3)CC2)ccc1CS(C)(=O)=O [Example 403, 3-[5-[4-(4-cyanophenyl)piperidine-1-carbonyl]-2-(methylsulfonylmethyl)phenyl]-1-propan-2-ylurea] | 79.9
12 | COCCNC(=O)Nc1cc(C(=O)N2CCC(c3ccc(C#N)cc3)CC2)ccc1C [Example 152, 1-[5-[4-(4-cyanophenyl)piperidine-1-carbonyl]-2-methyl-phenyl]-3-(2-methoxyethyl)urea] | 95.1
13 | Cc1ccc(C(=O)N2CCC(c3ccc(C#N)cc3)CC2)cc1NC(=O)NC(C)(C)CNc1ccccc1 [Example 59, 3-(1-anilino-2-methyl-propan-2-yl)-1-[5-[4-(4-cyanophenyl)piperidine-1-carbonyl]-2-methyl-phenyl]urea] | 87.2
14 | Cc1ccc(C(=O)N2CCC(c3ccc(C#N)cc3)CC2)cc1NC(=O)NCCCCN(C)C [Example 142, 1-[5-[4-(4-cyanophenyl)piperidine-1-carbonyl]-2-methyl-phenyl]-3-(4-dimethylaminobutyl)urea] | 80.3
